Test results from US4703058A, “β-methylene furanethanamines and use as anti-hypertensive agents” (Merrell Dow Pharmaceuticals Inc., priority 1986, dated 1987).

Experiments:
[1] = target: T1, dopamine β-hydroxylase (DBH) (Bos taurus, UniProt P15101); experiment: DBH inhibitory activity - in vitro (time-dependent inactivation; tyramine as substrate, oxygen uptake by polarographic electrode); assay type: biochemical
T1 sequence (P15101 1-610): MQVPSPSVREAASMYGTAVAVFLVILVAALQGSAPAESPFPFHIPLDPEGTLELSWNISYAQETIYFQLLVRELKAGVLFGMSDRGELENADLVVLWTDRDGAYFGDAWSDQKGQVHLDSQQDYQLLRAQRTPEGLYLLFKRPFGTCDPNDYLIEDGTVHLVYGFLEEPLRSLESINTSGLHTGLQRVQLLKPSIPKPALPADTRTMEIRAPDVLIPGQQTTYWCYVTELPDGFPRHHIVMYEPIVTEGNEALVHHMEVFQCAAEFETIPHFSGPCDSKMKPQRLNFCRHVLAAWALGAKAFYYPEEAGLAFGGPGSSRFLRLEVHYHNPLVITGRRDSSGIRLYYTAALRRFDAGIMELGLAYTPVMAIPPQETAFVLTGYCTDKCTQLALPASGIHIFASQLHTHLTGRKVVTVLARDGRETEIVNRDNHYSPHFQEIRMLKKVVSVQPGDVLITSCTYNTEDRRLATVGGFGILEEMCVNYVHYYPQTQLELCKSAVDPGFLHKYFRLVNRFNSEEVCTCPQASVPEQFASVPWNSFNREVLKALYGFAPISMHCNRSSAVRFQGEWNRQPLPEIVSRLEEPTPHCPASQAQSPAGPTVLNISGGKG
Method: The dopamine β-hydroxylase inhibitory properties of the compounds of this invention can readily be determined by standard and well known procedures such as those procedures set forth in U.S. Pat. No. 4,415,191. For example, determination of whether the DBH inhibition allows time-dependent kinetics is exemplified by the procedure wherein enzymatic oxygenation by DBH is determined in aqueous solution in the presence of molecular oxygen, an electron donor such as ascorbate, and the necessary cofactors for the enzyme at a pH of 5 and a temperature of 20°-40° C., preferrably 37° C. The test compound is added at the desired concentration, and the system is incubated. At different time intervals, aliquots are taken and DBH activity is measured using tyramine as the substrate and the reaction followed by measuring the oxygen uptake using a polarographic electrode and an oxygen monitor by the method of S. May et al., J. Biol. Chem. 256, 2258 (1981). The inhibition constants for the inactivation of DBH by each compound are then determined by conventional procedures such as the method of Kitz and Wilson, J. Biol. Chem. 237, 3245 (1962). When the compound shown in Table I was tested according to the above described procedure, the DBH inhibitory activity increased as a function of the time of incubation. The initial rate of decrease of activity increased with increasing concentration of inhibitor. The results in Table I indicate that β-methylene-2-furanethanamine is potent as illustrated by the rapid rate of inactivation (kinact) and low inhibition contant (KI).

hypertensive rats = experiment: Antihypertensive activity - in vivo (hypertensive rats, blood pressure monitored continuously)
Method: The ability of the compounds of this invention to lower blood pressure can be determined in vivo using hypertensive rats according to standard and well known procedures. The test compound is administered intraperitoneally (ip) or orally (po) to rats and the blood pressure monitored continuously. Since DBH is a major enzyme in the synthetic pathway of the catecholamines, it would be expected that the presence of an inhibitor would act to decrease the amount of catecholamines produced, and thereby have an antihypertensive effect.

## C=C(CN)c1ccco1 [β-Methylene-2-Furanethanamine]
[1]; in words, from Table I
  DBH inhibition, result in words (potency): potent
[1]; inactivation of DBH, Kitz and Wilson method, pH 5, 20°-40° C., preferably 37° C., tyramine substrate
  Ki: 8 mM
[1]; rate of inactivation of DBH, Kitz and Wilson method, pH 5, 20°-40° C., preferably 37° C., tyramine substrate
  kinact: 6.67e-05 s⁻¹
Hypertensive rats; 10 mg/kg (ip)
  Maximum % Change Mean Blood Pressure: 18%
Hypertensive rats; 30 mg/kg (ip)
  Maximum % Change Mean Blood Pressure: 32%
